Experimental data taken from patent US11420980B2, “Salt of pentacyclic compound and crystal thereof” (Eisai R&D Management Co., Ltd., priority 2019, dated 2022).

Assays:
[1] = system: rat primary septal neuron culture; assay: Measurement of acetylcholine (ACh) release in the rat primary septal neuron culture system in the presence of NGF; type: cell-based; details: rat primary septal neurons, with NGF, one day after compound addition, HPLC
Text: Measurement of Acetylcholine (ACh) Release in the Rat Primary Septal Neuron Culture System in the Presence of NGF
(1) Rat Primary Septal Neuron Culture
The septal area was isolated from Sprague-Dawley (SD) rats (Charles River Laboratories Japan, Inc.) at a fetal age of 18 days, and cultured. Specifically, fetuses were aseptically removed from pregnant rats under isoflurane anesthesia. The brain was extracted from each fetus, and immersed in ice-cooled L-15 medium (11415-064. Thermo Fisher Scientific), The septal area was dissected from the extracted brain under a stereoscopic microscope. The dissected septal area was subjected to enzyme treatment in an enzyme solution containing 0.25% trypsin (15050-065. Thermo Fisher Scientific) and 0.01% DNase (D5025-1.50KU, Sigma) at 37° C. for 30 minutes, thereby dispersing the cells. In this case, the enzyme reaction was terminated by adding inactivated horse serum (26050-088. Thermo Fisher Scientific). The enzyme-treated solution was centrifuged at 1000 rpm for 3 minutes, and the supernatant was removed. A medium in an amount of 10 mL was added to the obtained cell mass. […]
One day after compound addition, an amount of ACh release was measured by HPLC in the following manner. […]

[2] = system: Choline acetyltransferase (ChAT) mRNA; assay: Measurement of choline acetyltransferase (ChAT) mRNA expression levels in the rat septal area; type: in vivo; details: SD male rats, oral, 10 mg/kg, medial septum 24 hours after administration, qPCR
Procedure: Measurement of Choline Acetyltransferase (ChAT) mRNA Expression Levels in the Rat Septal Area
(§1) (1) Compound Administration
In this study, SD male rats (Charles River Laboratories Japan, Inc. with a body weight of about 250 to 350 g were used. The compound was dissolved in 0.01 mol/L hydrochloric acid, and orally administered.
At 24 hours after the administration of the compound, the whole brain tissue was collected under pentobarbital anesthesia. The medial septum was isolated from whole brain on ice and frozen with liquid nitrogen, and them stored at −80° C.
(3) Measurement of ChAT […] Expression Levels
For RNA purification, RNeasy Plus Mini Kit (#74136: QIAGEN) was used in this study. RNA purification was performed by the method described in the kit, After RNA purification, the total RNA concentration was measured by using QIAxpert Instrument (QIAGEN). cDNA was synthesized using SuperScript® VILO™ cDNA. Synthesis Kit (#11754: Thermo Fisher Scientific). The synthesis of cDNA was performed by the method described in the kit. […] Quantitative polymerase chain reaction (qPCR) was conducted using ABI PRISM® 7900HT (Thermo Fisher Scientific) by a fluorescence probe method. […]

[3] = system: acetylcholine (ACh) in cerebrospinal fluid (CSF); assay: Measurement of acetylcholine (ACh) in rat cerebrospinal fluid (CSF); type: in vivo; details: Fischer 344 male rats, oral once a day at 10 mg/kg for three days, CSF 24 hours after administration, LC-MS
Procedure: Measurement of Acetylcholine (ACh) in Rat Cerebrospinal Fluid (CSF)
Thus, the changes in acetylcholine in CSF were measured in order to determine the changes in intracerebral acetylcholine by the test compounds.
(2) Compound Administration
In this study Fischer 344 male rats (Charles River Laboratories Japan, Inc.) with a body weight of about 150 to 250 g were used. The test compounds were orally administered to the rats once a day at 10 mg/kg for three days. The vehicle used was 0.01 mol/L hydrochloric acid.
At 24 hours after the administration of the vehicle and the test compounds, the CSF was collected from cisterna magna in a tube containing AchE inhibitors under pentobarbital anesthesia. The collected CSF was centrifuged at 3500×g at 4° C. for 10 minutes and the supernatant was collected. The collected supernatant was frozen with liquid nitrogen, and then stored at −80° C.
(4) Measurement of Ach by LC-MS
To 10 μL of the CSF was added 50 μL of acetylcholine-d9 chloride (ACh-d9) at a final concentration of 0.34 nmol/L as an internal standard. […] The supernatant was collected and subjected to LC/MS ([…]), and Ach was detected as precursor ion at m/z 146.050 and as product ion at m/z 87.071 and ACh-d9 as an internal standard was detected as precursor ion at m/z 155.088 and as product ion at m/z 87.000.

[4] = system: ChAT positive cells of the medial septal area; assay: Fimbria-fornix lesioned rat model: ChAT positive cells of the medial septal area; type: in vivo; details: fimbria-fornix lesioned rats, oral once a day after the operation, % of sham-operated group, mean±SEM, # significant vs vehicle (38.4 ± 5.0)
Procedure: (§2) Neuroprotective and Restorative Effect on Cholinergic Neurons Using Fimbria-Formix Lesioned Rat Model
(§3) (1) Preparation of Fimbria-Fornix Lesioned Rat Model
(§4) In this studs Sprague-Dawley male rats (Charles River Laboratories Japan, Inc.) with a body weight of about 250 to 350 g were used. The rat was anesthetized under the combination of three drugs: midazolam (2 mg/kg s.c.), medetomidine hydrochloride (0.15 mg/kg s.c.) and butorphanol tartrate (2.5 mg/kg s.c.) and fixed with a brain stereotaxis apparatus (Narishige Co., Ltd.). The cranial was exposed and a hole with 5 mm width was drilled in the skull from the median line 2 mm posterior to Bregma. A razor with 4 mm width was pierced into the Bregma in 5.5 mm depth to cut fimbria-fornix. […]
(§5) The prepared brain coronal frozen sections were stained with DAB (DAB PEROXIDASE SUBSTRATE KIT (Vector, SK-4100)) using a ChAT antibody (Santa Cruz, SC-20672) or a VAChT antibody (Merck Millipore, ABN100) as a primary antibody. The section image including the medial septal area or hippocampus as shown in “The mouse Brain in stereotaxic coordinates” (COMPACT THIRD EDITION, Keith B. J. Franklin & George Paxinos) was taken by an all-in-one fluorescence microscope (KEYENCE, BZ-X710) and ChAT positive cells of the medial septal area or optical density (OD) in hippocampal VAChT were measured by BZ analysis software (KEYENCE). […] Data are expressed as the mean±SEM. […]

[5] = system: hippocampal vesicular acetylcholine transporter (VAChT); assay: Fimbria-fornix lesioned rat model: optical density in hippocampal VAChT; type: in vivo; details: fimbria-fornix lesioned rats, oral once a day after the operation, % of sham-operated group, mean±SEM, # significant vs vehicle (19.5 ± 6.4)
Procedure: as §2, §3, §4, §5

[6] = system: ChAT positive cells of the medial septal area; assay: Evaluation in human tau P301S transgenic mouse (ChAT positive cells, medial septal area); type: in vivo; details: human tau P301S transgenic mice, oral once a day for three months (four- to seven-month-old), Dose: 5 mg/kg, mean±SEM, # significant vs vehicle (83.0 ± 5.8)
Text: Evaluation in Human Tau P301S Transgenic Mouse
as §1
In this study, the test compounds were orally administered to human tau P301S transgenic mice once a day for three months from four-month-old to seven-month-old. The vehicle used was 0.01 mol/L hydrochloric acid.
At the initial day of the administration (four-month-old) and at the next day of the final administration, mice of vehicle administration group and test compound administration group were anesthetized under pentobarbital (50 mg/kg, i.p.) and perfused with PBS. After the perfusion, the forebrain including the medial septal area was collected and fixed with 4% parafomaldehyde.
(3) Preparation of Brain Coronal Frozen Section
The collected forebrain including the medial septal area was immersed and shaken overnight in 4% paraformaldehyde. […]
The prepared brain coronal frozen sections were stained with DAB (DAB PEROXIDASE SUBSTRATE KIT (Vector, SK-4100)) using a ChAT antibody (Santa Cruz, SC-20672) as a primary antibody. The section image including the medial septal area as shown in “The mouse Brain in stereotaxic coordinates” (COMPACT THIRD EDITION, Keith B. J. Franklin & George Paxinos) was taken by an all-in-one fluorescence microscope (KEYENCE, […]) and […] positive cells around the major axis of the medial septal area were counted by BZ analysis software (KEYENCE). […] Data are expressed as the mean±SEM. […]

SMILES: CN1CCc2c(sc3nc4n(c(=O)c23)-c2sccc2C(=O)N(C)C4)C1 [Reference Example 1, 5,10-dimethyl-5,6,9,10,11,12-hexahydropyrido[4″,3″:4′,5′]thieno[2′,3′:4,5]pyrimido[1,2-a]thieno[3,2-f][1,4]diazepine-4,13-dione]
- compound concentration showing a 20% increase from the ACh concentration in the buffer of the control group [1]: 0.1 µM
- percentage of ChAT mRNA expression levels increased from the vehicle administration group [2]: 56.4%
- ACh concentration in CSF, percentage (% of control) versus vehicle administration group [3]: 156.8%
- Number of ChAT positive cells (%) in test compound administration group [4]: 74.1 ± 9.3^# %
- OD in hippocampal VAChT (%) in test compound administration group [5]: 66.1 ± 14.2^# %
- Ratio (%) of number of ChAT positive cells compared to that in the initial administration [6]: 105.3 ± 4.3^# %
